Measured values as given in ChEMBL document CHEMBL1201862, “PubChem BioAssay data set” (2004).
The source made the active and inactive calls.

How the values were obtained:
[1] = target: Sphingosine 1-phosphate receptor 2 (Homo sapiens, UniProt O95136); assay: Late-stage fluorescence-based dose-response cell-based counterscreen assay to identify agonists of the Sphingosine 1-Phosphate Receptor 3 (S1P3): Sphingosine 1-Phosphate Receptor 2 (S1P2) agonist assay.; format: functional
[2] = target: Sphingosine 1-phosphate receptor 4 (Homo sapiens, UniProt O95977); assay: Late-stage fluorescence-based dose-response cell-based counterscreen assay to identify agonists of the Sphingosine 1-Phosphate Receptor 3 (S1P3): Sphingosine 1-Phosphate Receptor 4 (S1P4) agonist assay.; format: functional
[3] = target: Delta-type opioid receptor (Homo sapiens, UniProt P41143); assay: Counterscreen for agonists of heterodimerization of the mu 1 (OPRM1) and delta 1 (OPRD1) opioid receptors: Luminescence-based cell-based high throughput dose response assay to identify agonists of OPRD1 homodimerization. [Related pubchem assays (depositor defined):AID504326, AID504355, AID504692, AID504904, AID504905]; format: functional
[4] = target: T1, High affinity choline transporter 1 (Homo sapiens, UniProt Q9GZV3); assay: CHT activators, dose response, cell-based, 10-point CRC, membrane potential dye (AID 602376); format: functional
T1 sequence (Q9GZV3 whole entry): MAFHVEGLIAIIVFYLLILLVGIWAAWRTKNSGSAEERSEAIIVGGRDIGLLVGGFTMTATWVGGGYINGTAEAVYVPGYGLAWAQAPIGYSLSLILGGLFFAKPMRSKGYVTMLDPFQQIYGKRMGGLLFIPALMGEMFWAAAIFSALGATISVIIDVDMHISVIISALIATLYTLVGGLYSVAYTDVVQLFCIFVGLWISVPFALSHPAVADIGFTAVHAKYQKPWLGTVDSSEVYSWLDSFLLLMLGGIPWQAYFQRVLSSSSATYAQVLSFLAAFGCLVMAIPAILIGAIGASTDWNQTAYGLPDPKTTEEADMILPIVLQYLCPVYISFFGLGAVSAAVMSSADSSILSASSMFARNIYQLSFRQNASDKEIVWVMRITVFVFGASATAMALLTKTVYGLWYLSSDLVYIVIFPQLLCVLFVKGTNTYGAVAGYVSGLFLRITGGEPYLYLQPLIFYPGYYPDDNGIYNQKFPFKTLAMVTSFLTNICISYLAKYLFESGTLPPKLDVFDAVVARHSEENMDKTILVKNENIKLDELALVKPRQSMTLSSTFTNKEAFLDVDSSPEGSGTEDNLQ

Mu-type opioid receptor = Mu-type opioid receptor (Homo sapiens, UniProt P35372); assay: Counterscreen for agonists of heterodimerization of the mu 1 (OPRM1) and delta 1 (OPRD1) opioid receptors: Luminescence-based cell-based high throughput dose response assay to identify agonists of OPRM1 homodimerization.; format: functional;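 also: U2OS cells expressing OPRM1 and beta-arrestin as split beta-galactosidase partners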
[5] = target: 5-hydroxytryptamine receptor 5A (Homo sapiens, UniProt P47898); assay: Counterscreen for agonists of OPRM1-OPRD1 heterodimerization: luminescence-based cell-based high throughput dose response assay to identify agonists of 5-hydroxytryptamine (serotonin) 5A receptor (HTR5A). [Related pubchem assays (depositor defined):AID504326, AID504355, AID504692, AID504904, AID504905]; format: functional
[6] = HEK293T cytotoxicity, dose response, cytotoxicity control for miR-122 modulator project, cell-based, activator set, cherry-pick (AID 720690); format: functional;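 also: HEK293T human cells scored for general mammalian cytotoxicity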
[7] = THP-1 cell cytotoxicity, cytotoxicity control, set 4 (AID 504911); format: functional; details: Mycobacterium tuberculosis
[8] = THP-1 cell cytotoxicity, dose response, cytotoxicity control, set 3 (AID 504852); format: functional; details: Mycobacterium tuberculosis
[9] = Vero cell cytotoxicity, dose response, cytotoxicity control for M. tuberculosis growth inhibitor project, Vero cells, purified and synthesized compounds, set 4 (AID 504854); format: functional; details: Mycobacterium tuberculosis
[10] = Vero cell cytotoxicity, cytotoxicity control for M. tuberculosis inhibitor project, purified and synthesized samples, set 3 (AID 504684); format: functional
[11] = target: Protein disulfide-isomerase (Homo sapiens, UniProt P07237); assay: PDI inhibitors, insulin aggregation turbidity, dose response, biochemical, absorbance, cherry-picked samples (AID 602350); format: functional
[12] = target: Dual specificity tyrosine-phosphorylation-regulated kinase 1A (Rattus norvegicus, UniProt Q63470); format: biochemical, Homo sapiens
[13] = target: Tyrosine-protein kinase Fyn (Homo sapiens, UniProt P06241); format: functional
[14] = target: Vascular endothelial growth factor receptor 2 (Homo sapiens, UniProt P35968); format: functional
[15] = target: Tyrosine-protein kinase Blk (Homo sapiens, UniProt P51451); format: functional;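 also: obtained as one member of a kinome-wide kinase assay panel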
[16] = target: Mast/stem cell growth factor receptor Kit (Homo sapiens, UniProt P10721); format: functional;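 also: KIT entry within a kinase panel assay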
[17] = target: Vascular endothelial growth factor receptor 3 (Homo sapiens, UniProt P35916); format: functional;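 also: value from a kinome-wide profiling panel, with FLT4 as the panel member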
[18] = target: Macrophage colony-stimulating factor 1 receptor (Homo sapiens, UniProt P07333); format: functional;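 also: value comes from the Navigating the Kinome screening panel, CSF1R member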
[19] = target: Receptor-type tyrosine-protein kinase FLT3 (Homo sapiens, UniProt P36888); format: functional;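 also: FLT3 was tested as one member of a kinome-wide kinase panel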
[20] = target: Tyrosine-protein kinase ABL1 (Homo sapiens, UniProt P00519); format: functional
[21] = target: Tyrosine-protein kinase Lck (Homo sapiens, UniProt P06239); format: functional;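 also: lck was assayed as one member of a kinase panel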
[22] = target: Tyrosine-protein kinase Lyn (Homo sapiens, UniProt P07948); format: functional;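 also: lyn as one member of a kinase panel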
[23] = target: Proto-oncogene tyrosine-protein kinase Src (Homo sapiens, UniProt P12931); format: functional;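 also: SRC entry within a kinome-wide kinase profiling panel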
[24] = target: Vascular endothelial growth factor receptor 1 (Homo sapiens, UniProt P17948); format: functional;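 also: measured within a kinome-wide profiling panel, FLT1 as the panel member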
Sequence of Vascular endothelial growth factor receptor 1 (P17948 whole entry): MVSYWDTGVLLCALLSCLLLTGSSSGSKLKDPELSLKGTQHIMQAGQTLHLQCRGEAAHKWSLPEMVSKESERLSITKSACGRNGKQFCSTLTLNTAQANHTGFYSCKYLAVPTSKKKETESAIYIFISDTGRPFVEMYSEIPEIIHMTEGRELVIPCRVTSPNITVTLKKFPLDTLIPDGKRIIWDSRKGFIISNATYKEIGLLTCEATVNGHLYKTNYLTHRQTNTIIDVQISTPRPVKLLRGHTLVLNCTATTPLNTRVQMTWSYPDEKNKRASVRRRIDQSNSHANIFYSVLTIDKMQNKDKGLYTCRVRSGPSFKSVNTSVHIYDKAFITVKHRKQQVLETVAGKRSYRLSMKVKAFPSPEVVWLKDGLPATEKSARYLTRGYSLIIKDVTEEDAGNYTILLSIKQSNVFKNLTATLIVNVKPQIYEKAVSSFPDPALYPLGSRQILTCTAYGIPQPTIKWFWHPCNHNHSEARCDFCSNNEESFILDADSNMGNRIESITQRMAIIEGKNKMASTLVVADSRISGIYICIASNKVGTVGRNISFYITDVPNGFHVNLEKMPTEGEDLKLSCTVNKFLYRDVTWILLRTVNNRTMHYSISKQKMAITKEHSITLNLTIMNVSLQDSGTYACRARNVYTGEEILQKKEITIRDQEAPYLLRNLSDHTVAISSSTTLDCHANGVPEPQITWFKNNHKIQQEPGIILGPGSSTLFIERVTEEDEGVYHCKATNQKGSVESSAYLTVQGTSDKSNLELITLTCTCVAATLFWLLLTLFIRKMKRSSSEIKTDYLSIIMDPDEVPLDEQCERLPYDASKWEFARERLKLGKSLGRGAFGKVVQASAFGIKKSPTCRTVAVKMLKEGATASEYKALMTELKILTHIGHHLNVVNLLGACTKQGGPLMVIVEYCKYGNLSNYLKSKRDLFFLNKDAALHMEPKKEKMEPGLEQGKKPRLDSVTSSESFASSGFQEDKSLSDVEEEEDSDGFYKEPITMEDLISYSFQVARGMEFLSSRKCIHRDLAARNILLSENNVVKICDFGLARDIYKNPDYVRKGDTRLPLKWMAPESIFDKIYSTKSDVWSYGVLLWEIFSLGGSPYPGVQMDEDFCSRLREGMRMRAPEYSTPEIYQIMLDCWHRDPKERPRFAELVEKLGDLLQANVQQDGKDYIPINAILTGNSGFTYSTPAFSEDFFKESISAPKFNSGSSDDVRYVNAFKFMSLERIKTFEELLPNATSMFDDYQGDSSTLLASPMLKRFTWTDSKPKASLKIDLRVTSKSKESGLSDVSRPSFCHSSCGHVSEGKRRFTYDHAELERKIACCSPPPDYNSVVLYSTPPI

Sequence of Vascular endothelial growth factor receptor 2 (P35968 whole entry): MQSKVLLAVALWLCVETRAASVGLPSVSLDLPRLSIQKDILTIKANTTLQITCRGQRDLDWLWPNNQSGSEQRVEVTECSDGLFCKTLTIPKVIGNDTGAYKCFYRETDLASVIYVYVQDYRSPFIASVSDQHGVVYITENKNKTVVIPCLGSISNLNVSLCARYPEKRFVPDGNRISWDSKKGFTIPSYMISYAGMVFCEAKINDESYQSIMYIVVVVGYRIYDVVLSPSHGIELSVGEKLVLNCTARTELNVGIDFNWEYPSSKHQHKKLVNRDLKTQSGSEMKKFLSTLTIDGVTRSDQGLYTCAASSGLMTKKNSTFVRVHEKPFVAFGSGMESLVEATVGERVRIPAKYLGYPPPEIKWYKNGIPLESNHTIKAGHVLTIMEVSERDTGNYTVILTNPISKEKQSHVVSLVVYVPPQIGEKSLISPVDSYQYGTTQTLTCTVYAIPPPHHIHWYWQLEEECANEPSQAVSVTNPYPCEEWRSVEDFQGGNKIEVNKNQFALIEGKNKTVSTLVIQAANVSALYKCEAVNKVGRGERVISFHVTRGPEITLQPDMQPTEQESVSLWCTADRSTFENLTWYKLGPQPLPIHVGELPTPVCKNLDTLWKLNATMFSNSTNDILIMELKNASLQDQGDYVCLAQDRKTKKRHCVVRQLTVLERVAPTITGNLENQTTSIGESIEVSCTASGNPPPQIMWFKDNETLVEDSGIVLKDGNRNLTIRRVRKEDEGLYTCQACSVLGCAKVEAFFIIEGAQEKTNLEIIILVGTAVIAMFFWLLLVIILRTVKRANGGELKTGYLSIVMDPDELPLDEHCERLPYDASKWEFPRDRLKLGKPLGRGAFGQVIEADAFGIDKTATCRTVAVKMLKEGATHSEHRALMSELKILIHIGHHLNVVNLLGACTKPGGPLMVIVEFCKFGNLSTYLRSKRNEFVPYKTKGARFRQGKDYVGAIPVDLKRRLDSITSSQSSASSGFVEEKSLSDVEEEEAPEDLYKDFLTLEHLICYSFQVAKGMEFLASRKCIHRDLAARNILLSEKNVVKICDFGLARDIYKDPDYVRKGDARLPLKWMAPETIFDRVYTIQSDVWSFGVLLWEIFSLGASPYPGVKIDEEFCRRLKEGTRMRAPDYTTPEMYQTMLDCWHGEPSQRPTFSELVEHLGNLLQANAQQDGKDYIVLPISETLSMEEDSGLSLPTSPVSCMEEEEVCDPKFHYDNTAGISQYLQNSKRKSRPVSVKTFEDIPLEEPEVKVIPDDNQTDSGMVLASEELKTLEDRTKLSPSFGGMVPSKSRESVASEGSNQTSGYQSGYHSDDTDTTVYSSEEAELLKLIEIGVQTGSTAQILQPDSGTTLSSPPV
Sequence of Mast/stem cell growth factor receptor Kit (P10721 whole entry): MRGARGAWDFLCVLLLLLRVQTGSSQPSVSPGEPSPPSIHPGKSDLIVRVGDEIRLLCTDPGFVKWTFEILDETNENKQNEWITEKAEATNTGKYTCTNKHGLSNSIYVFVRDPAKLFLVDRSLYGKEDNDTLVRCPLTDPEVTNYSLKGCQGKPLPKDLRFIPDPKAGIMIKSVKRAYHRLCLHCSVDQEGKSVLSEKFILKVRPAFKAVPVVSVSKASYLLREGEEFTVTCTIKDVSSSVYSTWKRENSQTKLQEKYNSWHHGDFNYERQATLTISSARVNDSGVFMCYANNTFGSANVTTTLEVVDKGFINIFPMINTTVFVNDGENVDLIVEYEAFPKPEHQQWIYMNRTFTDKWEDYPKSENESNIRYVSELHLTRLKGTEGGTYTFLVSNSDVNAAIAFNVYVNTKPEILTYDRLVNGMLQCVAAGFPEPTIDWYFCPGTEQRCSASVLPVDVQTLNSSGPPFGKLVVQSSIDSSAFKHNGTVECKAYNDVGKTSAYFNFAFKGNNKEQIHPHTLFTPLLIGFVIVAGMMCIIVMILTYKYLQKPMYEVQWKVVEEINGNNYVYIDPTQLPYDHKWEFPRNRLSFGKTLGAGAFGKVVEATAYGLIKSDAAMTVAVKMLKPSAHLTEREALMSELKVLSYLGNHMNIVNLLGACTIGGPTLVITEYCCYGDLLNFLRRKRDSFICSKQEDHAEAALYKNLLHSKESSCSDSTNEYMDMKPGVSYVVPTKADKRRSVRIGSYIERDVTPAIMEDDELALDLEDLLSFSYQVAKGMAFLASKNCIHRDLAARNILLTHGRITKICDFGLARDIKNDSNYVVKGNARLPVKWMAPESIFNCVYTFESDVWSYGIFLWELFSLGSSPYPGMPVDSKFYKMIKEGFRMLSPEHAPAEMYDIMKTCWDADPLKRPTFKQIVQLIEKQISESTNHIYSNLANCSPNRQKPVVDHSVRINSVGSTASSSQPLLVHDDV
Sequence of Mu-type opioid receptor (P35372 whole entry): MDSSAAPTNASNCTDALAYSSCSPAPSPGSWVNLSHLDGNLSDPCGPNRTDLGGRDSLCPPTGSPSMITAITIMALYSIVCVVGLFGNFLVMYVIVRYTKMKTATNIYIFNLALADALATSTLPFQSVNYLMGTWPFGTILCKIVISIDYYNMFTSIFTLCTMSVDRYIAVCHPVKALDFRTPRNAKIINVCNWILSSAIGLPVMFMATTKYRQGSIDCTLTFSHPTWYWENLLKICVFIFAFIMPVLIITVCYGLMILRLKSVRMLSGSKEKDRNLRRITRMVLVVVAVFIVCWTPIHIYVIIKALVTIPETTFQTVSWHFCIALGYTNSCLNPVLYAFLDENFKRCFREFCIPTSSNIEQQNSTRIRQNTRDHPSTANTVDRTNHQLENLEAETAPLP
Sequence of Sphingosine 1-phosphate receptor 4 (O95977 whole entry): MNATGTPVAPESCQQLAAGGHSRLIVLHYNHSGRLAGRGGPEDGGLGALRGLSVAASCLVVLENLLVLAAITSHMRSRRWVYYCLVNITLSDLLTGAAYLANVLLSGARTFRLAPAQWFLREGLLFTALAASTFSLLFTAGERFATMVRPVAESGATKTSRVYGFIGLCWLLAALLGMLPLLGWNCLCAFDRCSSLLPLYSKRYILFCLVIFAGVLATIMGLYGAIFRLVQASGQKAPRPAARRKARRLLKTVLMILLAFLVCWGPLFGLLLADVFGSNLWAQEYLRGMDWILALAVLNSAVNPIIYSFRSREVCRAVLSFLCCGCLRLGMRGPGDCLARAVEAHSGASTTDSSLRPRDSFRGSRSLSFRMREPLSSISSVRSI
Sequence of Proto-oncogene tyrosine-protein kinase Src (P12931 2-536 limits assumed): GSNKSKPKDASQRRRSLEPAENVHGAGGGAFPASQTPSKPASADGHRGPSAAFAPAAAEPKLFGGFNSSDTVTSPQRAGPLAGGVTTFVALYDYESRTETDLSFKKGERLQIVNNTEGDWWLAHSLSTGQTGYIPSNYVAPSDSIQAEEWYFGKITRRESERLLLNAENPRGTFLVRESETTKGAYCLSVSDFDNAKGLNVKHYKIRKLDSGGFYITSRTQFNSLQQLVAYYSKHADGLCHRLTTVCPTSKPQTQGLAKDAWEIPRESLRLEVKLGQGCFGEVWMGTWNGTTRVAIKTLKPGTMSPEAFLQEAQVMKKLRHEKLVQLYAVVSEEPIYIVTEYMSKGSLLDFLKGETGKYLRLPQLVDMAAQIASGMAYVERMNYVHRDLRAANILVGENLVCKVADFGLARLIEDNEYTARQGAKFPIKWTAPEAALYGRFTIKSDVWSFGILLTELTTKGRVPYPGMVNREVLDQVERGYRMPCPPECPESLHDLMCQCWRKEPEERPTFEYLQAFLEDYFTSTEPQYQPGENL

For `CC1CCCCC1N(C(=O)c1cc(C2CC2)on1)C1CCCCC1C` (stereo not given), the EC50 [1] was > 50 µM (inactive) and the EC50 [2] was > 50 µM (inactive).
With `COc1ccc(CN2CCc3c([nH]c4ccccc34)C2)c(OC)c1C` the EC50 [3] was 74.3 µM (inactive), the EC50 [4] was 8.4 µM (active) and the EC50 (Mu-type opioid receptor) was > 30.8 µM (inactive). For the same molecule, the EC50 [5] was 47.6 µM (inactive) and the AC50 [6] was 1.68 µM (active).
In the case of `O=C(CSc1nc(O)c2ccccc2n1)NCc1ccc(Cl)cc1`, the CC50 [7] was > 100 µM (active), the CC50 [8] was > 100 µM (active) and the CC50 [9] was > 100 µM (active). For the same molecule, the CC50 [10] was > 100 µM (active).
For `COc1cc(-c2oc3cc(O)cc(O)c3c(=O)c2O[C@@H]2O[C@H](COC3O[C@@H](C)[C@H](O)[C@@H](O)[C@H]3O)[C@@H](O)[C@H](O)[C@H]2O)ccc1O` (stereo not given in full), the AC50 [11] was 7.96 µM (active) and the AC50 [12] was 4.62 µM (active).
With `Nc1n[nH]c2cccc(-c3ccc(NC(=O)Nc4cccc(C(F)(F)F)c4)c(F)c3)c12` the Ki [13] was 0.1 µM (active), the Ki [14] was 0.000794 µM (active) and the Ki [15] was 0.251 µM (active). The Ki [16] was 0.00251 µM (active), the Ki [17] was 0.00316 µM (active) and the Ki [18] was 0.00316 µM (active). The Ki [19] was 0.00316 µM (active), the Ki [20] was 0.316 µM (active) and the Ki [21] was 0.2 µM (active). The Ki [22] was 0.0398 µM (active), the Ki [23] was 0.158 µM (active) and the Ki [24] was 0.000316 µM (active).
